These results are taken from US20260083743A1, “NUCLEOSIDE DERIVATIVE FOR PREVENTING AND TREATING INFLAMMATION AND APPLICATION THEREOF” (WEST CHINA HOSPITAL OF SICHUAN UNIVERSITY, priority 2019, published 2026).

The subject of one data set is arthritis model. Nature of the data set: Improvement effect on arthritis, sodium iodoacetate knee joint model in SD rats. It is filed as in vivo. On the set-up: Pathological tissue score (joint): scale not given here. The following applies: gavage every day 100 mg/kg/d; 4th week after operation; n = 10.
Another data set concerns mouse hepatitis model. Description: Improvement effect on hepatitis, concanavalin A (ConA) mouse hepatitis model. The format is in vivo, Blab/c mice. The note with it: gavage 50 mg/kg, n = 10. Summed up: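 Male Balb/c mice (25–30 g) given ConA-induced hepatitis, then compounds dosed by gavage at 50 mg/kg daily after modeling; saline given to blank and model groups. Blood and liver sampled at 6, 12, 24 and 48 h post-dose. Serum ALT and AST measured.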

The test system of another data set is C57 mice. Nature of the data set: Toxicity test, 180 consecutive days by gavage in C57 mice. The format is in vivo. The note with it: 100 mg/kg/D for 180 consecutive days by gavage. As to the method:
In this example, the toxicities of compounds 1-19 prepared in example 1 were analyzed.
C57 mice were given compounds 1-19 at a dose of 100 mg/kg/D for 180 consecutive days by gavage. One hour after the last administration of the drug, the mice were anesthetized by intraperitoneal injection of sodium pentobarbital (40 mg/kg), placed on a constant temperature hot plate at 37±1° C., blood was taken by cardiac puncture or pathological sections were made to detect the side effects (gastrointestinal reaction, nervous system toxicity, hematological toxicity, allergic reaction, nephrotoxicity, hepatotoxicity, rash and asthma) The side effects of aspirin, ibuprofen, indomethacin, phenylbutazone, diclofenac, piroxicam and glucocorticoid groups were investigated according to the same administration method as compounds 1-19.

As to `COc1ccc2c(c1)c(CC(=O)O)c(C)n2C(=O)c1ccc(Cl)cc1` [Indometacin, indometacin, reference compound], in the data set with arthritis model, the “MMP-13 content in joint fluid” value amounted to 195 ± 8 mg/L. Further, the “Pathological tissue score (joint)” value in the data set with arthritis model was found to be 2.1 ± 0.3. Further, the “Aspartate aminotransferase (AST)” value is 220 ± 19 U/L with mouse hepatitis model (6 h after administration), 780 ± 82 U/L with mouse hepatitis model (12 h after administration), 1021 ± 103 U/L with mouse hepatitis model (24 h after administration) and 870 ± 91 U/L with mouse hepatitis model (48 h after administration). Further, the “Serum alanine aminotransferase (ALT)” value in the data set on mouse hepatitis model (6 h after administration) is listed as 465 ± 43 U/L; in the data set on mouse hepatitis model (12 h after administration) it was 1232 ± 113 U/L; in the data set on mouse hepatitis model (24 h after administration) it was 2165 ± 203 U/L; with mouse hepatitis model (48 h after administration), 1287 ± 133 U/L. In addition, the “Occurrence rate of side effects” value in the data set on C57 mice stood at 20%.
